“Also recorded” adds a separate entry of the source.
Experiments:
Aβ = settings: ref Maftei et al., 2012; cited from earlier work
Excerpt: Although initially captured at pH 8.0, a widely-used pH for interactome analyses, owed to its wide-spread use in radioimmunoprecipitation assay (RIPA) buffer formulations, the oAβ-SST14 interaction was in subsequent validation ...

SST14 = assay: SST14-dependent ThT incorporation in presence of Aβ1-42; type: biochemical, human
Excerpt: Figure 4. […] (A) Workflow of ThT-based aggregation assay. (B) Representative ThT fluorescence charts using synthetic Aβ1-42 alone or in combination with SST14 or negative control AVP peptides. […] Please see legend for experimental conditions. DOI: http://dx.doi.org/10.7554/eLife.28401.008 Figure 4—figure supplement 1. […] (A) Workflow of ThT-based aggregation assay. […] (B) Representative ThT fluorescence charts monitoring SST14-dependent ThT incorporation. […] DOI: http://dx.doi.org/10.7554/eLife.28401.009 [drawing 1] Figure 4—figure supplement 2. […] (A) Workflow of amylin-dependent ThT fluorecence assay in the presence or absence of SST14. (B) Representative ThT fluorescence charts monitoring amylin-dependent ThT incorporation. […] DOI: http://dx.doi.org/10.7554/eLife.28401.010 [drawing 2]
Assay procedures were largely based on a protocol described by Sarah Linse’s group ([Hellstrand et al., 2010]). […] The subsequent plate incubation proceeded at 37°C with shaking at 700 rpm for 4 of every 5 min in a microplate reader (CLARIOstar, BMG Labtech, Guelph, ON, Canada) for overall durations specified in individual figures. ThT fluorescence was measured every 5 min at excitation and emission wavelengths of 444 nm and 485 nm, respectively.

Aβ1-42 [1] = molecular target: T1, Aβ1-42 (Homo sapiens, UniProt P05067); assay: Western blot / silver stain detection of Aβ1-42 after incubation with SST14 or CST17; type: biochemical; settings: 18 hr incubation, 6E10 Western blot, Aβ1-42 alone or with SST14 or CST17
T1 construct: purchased Anaspec, Inc. (Fremont, CA, USA) AS-24224; host or cells: synthetic peptide
Method: Initially, we were interested in observing the influence of incubation time on sample composition (Figure 5B).

Aβ1-42 [2] = molecular target: T1, Aβ1-42; assay: Negative stain electron microscopy of Aβ1-42 assemblies; type: biochemical; settings: 50 μM Aβ1-42 in PBS, with or without equimolar SST
[3] = system: tau phosphorylated at pSer202/pThr205 (AT8) and pThr231 (AT180) in primary hippocampal neurons; assay: Primary hippocampal neuron tau phosphorylation assay (Western blot)

T1 sequence (P05067 672-713 limits assumed): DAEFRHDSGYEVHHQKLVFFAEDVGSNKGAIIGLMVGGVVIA

Row | Substance | Aβ binding epitope (Aβ) | delay of SST14-dependent ThT incorporation by monomeric Aβ1-42 (SST14; 1 μM monomeric Aβ1-42, 250 μM SST14) | delay of SST14-dependent ThT incorporation by oligomeric Aβ1-42 (SST14; 1 μM pre-aggregated Aβ1-42, 250 μM SST14) | apparent molecular weight of HMM 6E10 signals (Aβ1-42 [1]) | assemblies observed by negative stain electron microscopy (Aβ1-42 [2]) | tau hyperphosphorylation by monomeric Aβ1-42 ([3]; monomeric Aβ1-42 (0 hr) alone, 24 hr exposure) | tau hyperphosphorylation by oligomeric Aβ1-42 ([3]; pre-aggregated (24 hr) Aβ1-42, 24 hr exposure, day 18 cultures, AT8 and AT180, listed as oAβ1-42)
1 | humanin: 21-24 amino acid peptide coded within the mitochondrial 16S ribosomal RNA gene | interacts with an Aβ binding epitope encompassing residues 17-28 | – | – | – | – | – | –
2 | amyloid β peptide 1-42 [Aβ1-42] | – | Oligomeric, but not monomeric, Aβ1-42 interferes with SST14-dependent ThT incorporation | reliably delayed SST14-dependent ThT incorporation by several hours; also recorded: profound delay in SST14 aggregation-dependent ThT incorporation | 55-200 kDa | characteristic amyloid fibrils | not observed when monomeric Aβ1-42 was added to the cell culture medium alone | robust tau hyperphosphorylation was observed
